Results: ChEMBL document CHEMBL3588751, “A new antibacterial octaketide and cytotoxic phenylethanoid glycosides from Pogostemon cablin (Blanco) Benth” (Bioorg Med Chem Lett, 2015)
Values after ≈ are worked out from the molar mass of the structure shown.

What was measured:
[1] = test system: Staphylococcus aureus; test: Antimicrobial activity against Staphylococcus aureus BAA-2313 incubated for 48 hrs by broth dilution method; assay type: functional, organism-based; conditions: BAA-2313, 48 h
[2] = test system: Bacillus subtilis; test: Antimicrobial activity against Bacillus subtilis ATCC 6633 incubated for 48 hrs by broth dilution method; assay type: functional, organism-based; conditions: ATCC 6633, 48 h
[3] = test system: SK-OV-3; test: Cytotoxicity against human SKOV3 cells assessed as inhibition of cell growth incubated for 48 hrs by SRB assay; assay type: functional, cell-based; conditions: SK-OV-3, 48 h
[4] = test system: HCT-15; test: Cytotoxicity against human HCT15 cells assessed as inhibition of cell growth incubated for 48 hrs by SRB assay; assay type: functional, cell-based; conditions: HCT-15, 48 h
[5] = test system: Candida albicans; test: Antimicrobial activity against Candida albicans ATCC 10231 incubated for 48 hrs by broth dilution method; assay type: functional, organism-based; conditions: ATCC 10231, 48 h
[6] = test system: SK-MEL-2; test: Cytotoxicity against human SK-MEL-2 cells assessed as inhibition of cell growth incubated for 48 hrs by SRB assay; assay type: functional, cell-based; conditions: SK-MEL-2, 48 h
[7] = test system: Saccharomyces cerevisiae; test: Antimicrobial activity against Saccharomyces cerevisiae ATCC 9763 incubated for 48 hrs by broth dilution method; assay type: functional, organism-based; conditions: ATCC 9763, 48 h
[8] = test system: A549; test: Cytotoxicity against human A549 cells assessed as inhibition of cell growth incubated for 48 hrs by SRB assay; assay type: functional, cell-based; conditions: A549, 48 h

Row | Structure (SMILES) | IC50 [1] [µg/mL] | MIC [1] [µg/mL] | IC50 [2] [µg/mL] | MIC [2] [µg/mL] | IC50 [3] [µM] | IC50 [4] [µM] | IC50 [5] [µg/mL] | IC50 [6] [µM] | IC50 [7] [µg/mL] | IC50 [8] [µM] | MFC [5] [µg/mL] | MFC [7] [µg/mL]
1 | C[C@@H]1O[C@@H](O[C@@H]2[C@@H](O)[C@H](OCCc3ccc(O)c(O)c3)O[C@H](CO)[C@@H]2OC(=O)/C=C/c2ccc(O)c(O)c2)[C@H](O)[C@H](O)[C@H]1O | 165 (≈ 264 µM) | 200 (≈ 320 µM) | 106 (≈ 169 µM) | 150 (≈ 240 µM) | 9.52 | 7.03 | > 200 | 4.5 | > 200 | 6.78 | – | –
2 | CC[C@@H](C)C(=O)c1c(O)cc(O)cc1CC(=O)O | 140 (≈ 556 µM) | 200 (≈ 793 µM) | 84.1 (≈ 333 µM) | 150 (≈ 595 µM) | > 30 | > 30 | > 200 | > 30 | > 200 | > 30 | – | –
3 | C[C@@H]1O[C@@H](O[C@@H]2[C@@H](O)[C@H](OCCc3ccc(O)c(O)c3)O[C@H](CO)[C@H]2OC(=O)/C=C/c2ccc(O)c(O)c2)[C@H](O)[C@H](O)[C@H]1O [ACETOSIDE] | 156 (≈ 249 µM) | 200 (≈ 320 µM) | 98.5 (≈ 158 µM) | 150 (≈ 240 µM) | 7.61 | 2.73 | > 200 | 8.52 | > 200 | 5.81 | – | –
4 | C[C@@H]1[C@H](O)[C@@H](C)/C=C/C=C/C=C/C=C/C=C/C=C/C=C/[C@H](O[C@@H]2O[C@H](C)[C@@H](O)[C@H](N)[C@@H]2O)C[C@@H]2O[C@](O)(C[C@@H](O)C[C@@H](O)[C@H](O)CC[C@@H](O)C[C@@H](O)CC(=O)O[C@H]1C)C[C@H](O)[C@H]2C(=O)O [AMPHOTERICIN B] | – | – | – | – | – | – | 2.1 (≈ 2.27 µM) | – | 0.5 (≈ 0.541 µM) | – | 5 (≈ 5.41 µM) | 5 (≈ 5.41 µM)
5 | COc1cccc2c1C(=O)c1c(O)c3c(c(O)c1C2=O)C[C@@](O)(C(=O)CO)C[C@@H]3O[C@H]1C[C@H](N)[C@H](O)[C@H](C)O1 [DOXORUBICIN] | – | – | – | – | – | 0.109 | – | – | – | – | – | –
6 | CN[C@@H]1[C@H](O[C@H]2[C@H](O[C@H]3[C@H](O)[C@@H](O)[C@H](N=C(N)N)[C@@H](O)[C@@H]3N=C(N)N)O[C@@H](C)[C@]2(O)C=O)O[C@@H](CO)[C@H](O)[C@H]1O.CN[C@@H]1[C@H](O[C@H]2[C@H](O[C@H]3[C@H](O)[C@@H](O)[C@H](N=C(N)N)[C@@H](O)[C@@H]3N=C(N)N)O[C@@H](C)[C@]2(O)C=O)O[C@@H](CO)[C@H](O)[C@H]1O.O=S(=O)(O)O.O=S(=O)(O)O.O=S(=O)(O)O [STREPTOMYCIN SULFATE] | 8.5 | 10 | 4.5 | 5 | – | – | – | – | – | – | – | –
